Experimental findings from patent publication US11439658B2, “Compositions and methods for suppressing MSUT2” (United States Government As Represented By The Department …, priority 2018, dated 2022) are described below.

Series [1] deals with T1, recombinant GST-MSUT2 binding to synthetic poly(A) RNA (Homo sapiens, UniProt Q6PJT7).
T1 construct: fused on or other part: GST at the N-terminus (pGEX6P-1 vector)
T1 sequence (Q6PJT7 595-719 limits assumed): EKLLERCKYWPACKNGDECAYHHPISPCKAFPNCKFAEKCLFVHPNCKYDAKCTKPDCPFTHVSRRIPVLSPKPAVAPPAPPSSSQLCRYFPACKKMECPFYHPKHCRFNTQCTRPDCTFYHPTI
The series can be described thus: MSUT2/poly(A) RNA AlphaScreen assay. The note with it: dose validated hits of pilot AlphaScreen. How it is done:
To identify small-molecule inhibitors of the MSUT2 protein/poly(A) RNA interaction, a high-throughput AlphaScreen assay optimized for detecting recombinant GST-MSUT2 binding to synthetic poly(A) RNA. The MSUT2 AlphaScreen assay has been well optimized during its development for 384-well screening (z-score=0.96). Two high throughput AlphaScreens of 53,400 distinct small molecules have been completed. A multi-point dose analysis pilot screen of the Spectrum Collection was performed. […] Both the pilot screen and the screening approaches disclosed herein use the Quellos High-Throughput Screening Core at the University of Washington (UW).
Assay of inhibitor dose dependence. Hits identified in the pilot screen were validated by retesting resynthesized compounds over a wide concentration range. […] These hits will be validated by conducting a 14-point dose-response analysis with a drug concentration range from 100 μM down to 1.4 nM; the MSUT2/poly(A) RNA AlphaScreen Assay will be used to produce a readout. From this dose-response analysis, IC50 values will be calculated for dose-responsive hits. For the full scale screen 64 primary hits were identified and will be subject to dose validation as described for pilot screen compounds (and Ebselen, shown in FIG. 20).
The steps and set up for performing the ALPHA assay for MSUT2 binding to polyA are as follows: • 1. Dilutions are in assay buffer (1×PAMA final concentration). • 2. Scale is for 96 well assay in PE […] ½ area plate (total volume/well is 50 μL). • 3. Assays set up in low light conditions • 4. Add 20 μL of diluted donor bead (10 ug/mL) to well bringing well volume to 20 μL • 5. Add 10 μL diluted biotin RNA (15 nM)) bringing well volume to 30 μL • 6. Add 10 μL diluted GST-MSUT2 Protein (125 nM)) bringing well volume to 40 μL • 7. Incubate at room temp for 30 minutes in the dark • 8. Add 10 μl of diluted Acceptor bead (2.5 μg/mL) to well bringing well volume to 50 • 9. Incubate at room temp for 60 minutes in the dark • 10. Read Plate using standard AlphaAssay settings on Perkin Elmer EnSpire® Alpha microplate reader

Series [2] has as its system wild type or MSUT2 KO mice. The series can be described thus: Kainic acid induced gliosis in mice. In kind it is in vivo, mouse. The following applies: hippocampi 3 days after single 25 mg/kg i.p. How it is done:
Shown are the hippocampi of wild type or MSUT2 KO mice 3 days after KA treatment (a single dose of 25 mg/kg KA administered i.p.). […] Scale bar=500 μm.

Series [3] deals with biotinylated poly(A)15 RNA. The series can be described thus: Surface plasmon resonance (Biacore) binding to poly(A) RNA. The note with it: poly(A)15, five protein concentrations 1-0.6 μM. How it is done: Surface plasmon pesonance. SPR experiments were conducted on a Biacore T200 using the Biotin Capture Kit Series S following the manufacturer's instructions (GE). Biotin capture reagent was applied to the sensor chip at a flow rate of 2 μl/minute for 300 seconds. 1 nM biotinylated RNA (BiotinTEG-AAAAAAAAAAAAAAA; SEQ ID NO: 25) was captured at a flow rate of 10 μl/minute for 180 seconds. Samples were flowed across the sensor chip at 50 μl/minute for 120 seconds and the chip was regenerated for 120 seconds at a flow rate of 10 μl/minute. KD values for binding and disassociation were calculated from the binding kinetics of each protein at five concentrations using the Biacore T200 Software v3.1 application package (GE; 1, 0.9, 0.8, 0.7, 0.6 μM).
(Surface plasmon resonance follows binding to a sensor surface in real time, without labels.)

As usually defined, the IC50 is the midpoint of a concentration-inhibition curve. With `O=S(=O)(O)c1cc(N=C=S)ccc1C=Cc1ccc(N=C=S)cc1S(=O)(=O)O` [4,4′-Diisothiocyano-stilbene-2,2′ sulfonic acid], in series [1], the half-inhibitory concentration (IC50) stood at 6800 nM. Same read-out and setting: then `COc1cc2c(cc1OC)-c1cc3ccc(OC)c(OC)c3c[n+]1CC2` [Palmatine], with 1700 nM.

`O=c1c2ccccc2[se]n1-c1ccccc1` [Ebselen]: in series [1], the IC50 was found to be 1600 nM.

Turning to `C=C(C)[C@H]1CN[C@H](C(=O)O)[C@H]1CC(=O)O` [Kainic Acid], in series [2], the “gliotic response (astrocytosis, IHC for GFAP)” value is “obvious and strong gliotic response”.

B1: PABPN1: recombinant polyadenylate-binding nuclear protein 1 (protein, UniProt Q86U42 2-306, looked up)
Polyadenylate-binding protein …: AAAAAAAAAAGAAGGRGSGPGRRRHLVPGAGGEAGEGAPGGAGDYGNGLESEELEPEELLLEPEPEPEPEEEPPRPRAPPGAPGPGPGSGAPGSQEEEEEPGLVEGDPGDGAIEDPELEAIKARVREMEEEAEKLKELQNEVEKQMNMSPPPGNAGPVIMSIEEKMEADARSIYVGNVDYGATAEELEAHFHGCGSVNRVTILCDKFSGHPKGFAYIEFSDKESVRTSLALDESLFRGRQIKVIPKRTNRPGISTTDRGFPRARYRARTTNYNSSRSRFYSGFNSRPRGRVYRGRARATSWYSPY
A word on the Kd: it is the concentration at which binding is half-saturated. B1 yielded a Kd in series [3] of 237 ± 21 nM.

B2: MSUT2: recombinant mammalian suppressor of tauopathy 2, poly(A) RNA binding protein (protein)
chain: MEIGTEISRKIRSAIKGKLQELGAYVDEELPDYIMVMVANKKSQDQMTEDLSLFLGNNTIRFTVWLHGVLDKLRSVTTEPSSLKSSDTNIFDSNVPSNKSNFSRGDERRHEAAVPPLAIPSARPEKRDSRVSTSSQESKTTNVRQTYDDGAATRLMSTVKPLREPAPSEDVIDIKPEPDDLIDEDLNFVQENPLSQKKPTVTLTYGSSRPSIEIYRPPASRNADSGVHLNRLQFQQQQNSIHAAKQLDMQSSWVYETGRLCEPEVLNSLEETYSPFFRNNSEKMSMEDENFRKRKLPVVSSVVKVKKFNHDGEEEEEDDDYGSRTGSISSSVSVPAKPERRPSLPPSKQANKNLILKAISEAQESVTKTTNYSTVPQKQTLPVAPRTRTSQEELLAEVVQGQSRTPRISPPIKEEETKGDSVEKNQGTQQRQLLSRLQIDPVMAETLQMSQDYYDMESMVHADTRSFILKKPKLSEEVVVAPNQESGMKTADSLRVLSGHLMQTRDLVQPDKPASPKFIVTLDGVPSPPGYMSDQEEDMCFEGMKPVNQTAASNKGLRGLLHPQQLHLLSRQLEDPNGSFSNAEMSELSVAQKPEKLLERCKYWPACKNGDECAYHHPISPCKAFPNCKFAEKCLFVHPNCKYDAKCTKPDCPFTHVSRRIPVLSPKPAVAPPAPPSSSQLCRYFPACKKMECPFYHPKHCRFNTQCTRPDCTFYHPTINVPPRHALKWIRPQTSE
Molecule B2 registered a Kd in series [3] of 60 ± 15 nM.
